In brackets after ≈: the same amount, converted by molar mass.
These compounds were tested on Rhizoctonia solani (assay: Antifungal activity against Rhizoctonia solani). Conditions: not given.
Format: functional, organism-based
In the case of `S=c1[nH]nc(NCNc2n[nH]c(=S)s2)s1`, the EC50 is reported as 295 µg/mL (≈ 1060 µM). In the case of `N#Cc1ccc(COC(=O)c2ccc(Oc3cnc4cc(Cl)ccc4n3)cc2)cc1`, the EC50 is reported as 12 µg/mL (≈ 28.9 µM). Compound `N#Cc1ccc(COC(=O)c2ccc(Oc3cnc4ccccc4n3)cc2)cc1` has an EC50 of 8.54 µg/mL (≈ 22.4 µM). For `O=C(OCc1ccc(Cl)cc1Cl)c1ccc(Oc2cnc3cc(Cl)ccc3n2)cc1`, the EC50 was 35.2 µg/mL (≈ 76.5 µM). With `CO/C=C(/C(=O)OC)c1ccccc1Oc1cc(Oc2ccccc2C#N)ncn1` [AZOXYSTROBIN] the EC50 was 26.2 µg/mL (≈ 64.9 µM).

The compounds below were run on Staphylococcus aureus (assay: Antibacterial activity against Staphylococcus aureus). Conditions: not given.
Format: functional
For `N#Cc1ccc(/C=C/c2nc3ccccc3nc2Nc2ccc(C(=O)O)cc2)cc1`, the MIC was 13.3 µM (≈ 5.22 µg/mL).

The compounds below were run on MCF7 (assay: Anticancer activity against human MCF7 cells assessed as reduction in cell growth). Conditions: not given.
Format: functional, cell-based
`COc1ccc(OC)c(/C=C/c2nc3ccccc3nc2Nc2ccc(C(=O)O)cc2)c1` showed an IC50 of 10 µM. With `O=C(O)c1ccc(Nc2nc3ccccc3nc2/C=C/c2ccc(O)cc2)cc1` the IC50 was 7 µM.

What follows are compounds tested on Staphylococcus aureus (assay: Antibacterial activity against Staphylococcus aureus ATCC 25923 assessed as reduction in bacterial growth incubated for 24 hrs by serial dilution method). Conditions: not given.
Format: functional
Compound `NNC1=NNc2nc3ccc(S(=O)(=O)N4CCOCC4)cc3nc2S1` has an MIC of 1.92 µg/mL (≈ 5.03 µM). With `O=S(=O)(c1ccc2nc(Cl)c(Cl)nc2c1)N1CCOCC1` the MIC was 1.92 µg/mL (≈ 5.51 µM). Work on `C/C(=N/Nc1nc2nc3cc(S(=O)(=O)N4CCOCC4)ccc3nc2s1)c1ccc(Br)cc1` yielded an MIC of 1.92 µg/mL (≈ 3.51 µM). For `Cc1cc(O)n(C2=NNc3nc4ccc(S(=O)(=O)N5CCOCC5)cc4nc3S2)n1`, the MIC was 1.92 µg/mL (≈ 4.29 µM). Compound `Cc1nnc2n1Nc1nc3ccc(S(=O)(=O)N4CCOCC4)cc3nc1S2` has an MIC of 1.92 µg/mL (≈ 4.74 µM).

What follows are compounds tested on Candida albicans (assay: Antifungal activity against Candida albicans assessed as reduction in microbial growth). Conditions: not given.
Format: functional
`NNC1=NNc2nc3ccc(S(=O)(=O)N4CCOCC4)cc3nc2S1` was tested, and the MIC was 3.9 µg/mL. Compound `Cc1cc(O)n(C2=NNc3nc4ccc(S(=O)(=O)N5CCOCC5)cc4nc3S2)n1` has an MIC of 3.9 µg/mL.

The compounds below were run on Fusarium oxysporum (assay: Antifungal activity against Fusarium oxysporum). Conditions: not given.
Format: functional
`NNC1=NNc2nc3ccc(S(=O)(=O)N4CCOCC4)cc3nc2S1` showed an MIC of 15.6 µg/mL (≈ 40.9 µM). With `Cc1cc(O)n(C2=NNc3nc4ccc(S(=O)(=O)N5CCOCC5)cc4nc3S2)n1` the MIC was 15.6 µg/mL (≈ 34.9 µM).

The compounds below were run on Micrococcus luteus (assay: Antibacterial activity against Micrococcus luteus assessed as reduction in microbial growth). Conditions: not given.
Format: functional
Compound `CCNc1nc2ccccc2nc1C(=O)c1cnc(-c2ccccc2)o1` has an MIC of 62.5 µg/mL. `O=C(c1cnc(-c2ccc(Cl)cc2)o1)c1nc2ccccc2nc1N1CCOCC1` showed an MIC of 62.5 µg/mL. Compound `CCCNc1nc2ccccc2nc1C(=O)c1cnc(-c2ccc(Cl)cc2)o1` has an MIC of 62.5 µg/mL. Work on `CNc1nc2ccccc2nc1C(=O)c1cnc(-c2ccccc2)o1` yielded an MIC of 62.5 µg/mL. `O=C(c1cnc(-c2ccc(Cl)cc2)o1)c1nc2ccccc2nc1NCc1ccccc1` gave an MIC of 62.5 µg/mL. In the case of `CCCNc1nc2ccccc2nc1C(=O)c1cnc(-c2ccccc2)o1`, the MIC is reported as 62.5 µg/mL.

What follows are compounds tested on Pseudomonas aeruginosa (assay: Antibacterial activity against Pseudomonas aeruginosa ATCC 27853 assessed as inhibition of bacterial growth). Conditions: not given.
Format: functional
In the case of `CCNc1nc2ccccc2nc1C(=O)c1cnc(-c2ccccc2)o1`, the MIC is reported as 31.2 µg/mL (≈ 90.7 µM). `O=C(c1cnc(-c2ccc(Cl)cc2)o1)c1nc2ccccc2nc1N1CCOCC1` was tested, and the MIC was 31.2 µg/mL (≈ 74.3 µM). For `CCCNc1nc2ccccc2nc1C(=O)c1cnc(-c2ccc(Cl)cc2)o1`, the MIC was 31.2 µg/mL (≈ 79.5 µM). For `CNc1nc2ccccc2nc1C(=O)c1cnc(-c2ccccc2)o1`, the MIC was 31.2 µg/mL (≈ 94.6 µM). In the case of `O=C(c1cnc(-c2ccc(Cl)cc2)o1)c1nc2ccccc2nc1NCc1ccccc1`, the MIC is reported as 31.2 µg/mL (≈ 70.9 µM). With `CCCNc1nc2ccccc2nc1C(=O)c1cnc(-c2ccccc2)o1` the MIC was 31.2 µg/mL (≈ 87.2 µM).

Each compound was assayed on Xanthomonas axonopodis (assay: Antimicrobial activity against Xanthomonas axonopodis). Conditions: not given.
Format: functional, organism-based
Work on `O=C(/C=C/c1ccccn1)c1ccc(Oc2cnc3ccccc3n2)cc1` yielded an EC50 of 62.3 µM. In the case of `O=C(c1cnc(-c2ccc(Cl)cc2)o1)c1nc2ccccc2nc1N1CCOCC1`, the EC50 is reported as 44.3 µM. Compound `CCCNc1nc2ccccc2nc1C(=O)c1cnc(-c2ccc(Cl)cc2)o1` has an EC50 of 42.4 µM. Compound `O=C(c1cnc(-c2ccc(Cl)cc2)o1)c1nc2ccccc2nc1NCc1ccccc1` has an EC50 of 6.72 µM.

What follows are compounds tested on Escherichia coli (assay: Antimicrobial activity against Escherichia coli NCIM 2065 assessed as zone of inhibition incubated for 24 hrs by agar diffusion method). Conditions: not given.
Format: functional
For `Nc1ccc(Sc2nc3ccccc3nc2Cl)cc1`, the “inhibition zone (IZ)” value was 15 mm. With `COc1ccc(Sc2nc3ccccc3nc2Cl)cc1` the “inhibition zone (IZ)” value was 13 mm. For `Cc1cc(C)cc(Sc2nc3ccccc3nc2Cl)c1`, the “inhibition zone (IZ)” value was 11 mm.

What follows are compounds tested on Escherichia coli (assay: Antibacterial activity against Escherichia coli E38 assessed as reduction in bacterial growth by measuring minimum bactericidal concentration incubated for 16 to 20 hrs by serial dilution method). Conditions: time 16-20 hrs.
Format: functional
In the case of `Nc1ccc(Sc2nc3ccccc3nc2Cl)cc1`, the MBC is reported as 2.5 µg/mL (≈ 8.69 µM). `COc1ccc(Sc2nc3ccccc3nc2Cl)cc1` gave an MBC of 2.5 µg/mL (≈ 8.26 µM). For `Cc1cc(C)cc(Sc2nc3ccccc3nc2Cl)c1`, the MBC was 2.5 µg/mL (≈ 8.31 µM).

The compounds below were run on Escherichia coli (assay: Antibacterial activity against Escherichia coli ATCC 25922 assessed as reduction in bacterial growth by broth microdilution method). Conditions: not given.
Format: functional
Work on `Nc1ccc(Sc2nc3ccccc3nc2Sc2ccc(N)cc2)cc1` yielded an MIC of 2.5 µg/mL (≈ 6.64 µM). In the case of `O=C(O)c1cccc(Sc2nc3ccccc3nc2Sc2cccc(C(=O)O)c2)c1`, the MIC is reported as 2.5 µg/mL (≈ 5.75 µM). `COc1ccc(Sc2nc3ccccc3nc2Sc2ccc(OC)cc2)cc1` was tested, and the MIC was 2.5 µg/mL (≈ 6.15 µM). `O=[N+]([O-])c1ccc(Sc2nc3ccccc3nc2Sc2ccc([N+](=O)[O-])cc2)cc1` gave an MIC of 2.5 µg/mL (≈ 5.73 µM).

Each compound was assayed on Bacillus pumilus (assay: Antimicrobial activity against Bacillus pumilus). Conditions: not given.
Format: functional
Compound `Nc1ccc(Sc2nc3ccccc3nc2Sc2ccc(N)cc2)cc1` has an MIC of 2.5 µg/mL (≈ 6.64 µM). In the case of `COc1ccc(Sc2nc3ccccc3nc2Sc2ccc(OC)cc2)cc1`, the MIC is reported as 5 µg/mL (≈ 12.3 µM).

The compounds below were run on Candida albicans (assay: Antifungal activity against Candida albicans). Conditions: not given.
Format: functional
In the case of `CCc1nc2ccc(-c3nnc(SCC(=O)c4ccc([N+](=O)[O-])cc4)n3CC)cc2nc1CC`, the MIC90 is reported as 4 µg/mL (≈ 8.39 µM). `OC(Cn1cncn1)(Cn1cncn1)c1ccc(F)cc1F` [FLUCONAZOLE] was tested, and the MIC90 was 0.5 µg/mL (≈ 1.63 µM).

These compounds were tested on Nakaseomyces glabratus (assay: Antifungal activity against Candida glabrata). Conditions: not given.
Format: functional
Work on `CCc1nc2ccc(-c3nnc(SCC(=O)c4ccc([N+](=O)[O-])cc4)n3CC)cc2nc1CC` yielded an MIC90 of 2 µg/mL (≈ 4.2 µM). For `OC(Cn1cncn1)(Cn1cncn1)c1ccc(F)cc1F` [FLUCONAZOLE], the MIC90 was 2 µg/mL (≈ 6.53 µM).

Each compound was assayed on Candida tropicalis (assay: Antifungal activity against Candida tropicalis). Conditions: not given.
Format: functional
`CCc1nc2ccc(-c3nnc(SCC(=O)c4ccc([N+](=O)[O-])cc4)n3CC)cc2nc1CC` gave an MIC90 of 4 µg/mL (≈ 8.39 µM). In the case of `OC(Cn1cncn1)(Cn1cncn1)c1ccc(F)cc1F` [FLUCONAZOLE], the MIC90 is reported as 4 µg/mL (≈ 13.1 µM).

Each compound was assayed on Pichia kudriavzevii (assay: Antifungal activity against Candida krusei). Conditions: not given.
Format: functional
For `CCc1nc2ccc(-c3nnc(SCC(=O)c4ccc([N+](=O)[O-])cc4)n3CC)cc2nc1CC`, the MIC90 was 2 µg/mL (≈ 4.2 µM). Work on `OC(Cn1cncn1)(Cn1cncn1)c1ccc(F)cc1F` [FLUCONAZOLE] yielded an MIC90 of 16 µg/mL (≈ 52.2 µM).
